Measured values reported in ChEMBL document CHEMBL1255390, “Clinical pharmacodynamics of cefepime in patients infected with Pseudomonas aeruginosa” (2010).
Converted amounts (≈) assume the structure as drawn.

Legend:
Assay type in all cases: functional
[1] = fT>MIC in Pseudomonas aeruginosa infected patient at 2 g,iv administered as 3 hrs infusion every 8 hrs
Pseudomonas aeruginosa = test: Antimicrobial activity against Pseudomonas aeruginosa isolated from infected patient by Etest method
[2] = fT>MIC in Pseudomonas aeruginosa infected patient

For `CO/N=C(\C(=O)N[C@@H]1C(=O)N2C(C(=O)[O-])=C(C[N+]3(C)CCCC3)CS[C@H]12)c1csc(N)n1` [CEFEPIME], the “fT>MIC” value [1] was greater than 60%, the MIC50 (Pseudomonas aeruginosa) was 3 µg/mL (≈ 6.24 µM) and the MIC90 (Pseudomonas aeruginosa) was 16 µg/mL (≈ 33.3 µM). For the same compound, the “fT>MIC” value [2] was 85.2%.
